Values of other authors as cited in PMC10135567, “New Indole-3-Propionic Acid and 5-Methoxy-Indole Carboxylic Acid Derived Hydrazone Hybrids as Multifunctional Neuroprotectors” (Antioxidants, 2023).

System: SH-SY5Y cells and isolated rat-brain synaptosomes
Design: method as in PMID 35624746
Conditions: SH-SY5Y cells and rat-brain synaptosomes under toxic agents of oxidative stress; cited from earlier work

In the case of `O=C(CCn1c(=S)n(CCC(=O)N/N=C/c2cccc(O)c2O)c2ccccc21)N/N=C/c1cccc(O)c1O` [VIII], the “cellular and synaptosomal viability restored” value is given as “up to 80%”.
